Laboratory results taken from patent publication US20100137433A1, “Production of Rosmarinic Acid from Spearmint and uses Thereof” (priority 2007, published 2010).

Assays:
[1] = test system: mild allergic asthmatic subjects; assay: Sputum analysis (allergen-induced airway inflammation, sputum eosinophils); type: in vivo, human; settings: vs placebo, two subjects, FIGS. 4A-4B
Method: (§1) Subjects. Two subjects (person) were recruited for the study. Inclusion criteria required subjects to be non-smokers with stable, mild atopic asthma, free of other lung disease. Subjects were required to have FEV1 (forced expiratory volume in 1 second)>70% of predicted, baseline methacholine PC20 (the provocative concentration of methacholine causing a 20% fall in FEV1)<16 mg/mL, and development of an allergen-induced EAR (at least 20% fall in FEV1 within 2 h post allergen inhalation) and LAR (at least 15% fall FEV1 between 3-7 h post allergen inhalation).
(§2) Study design. Subjects meeting the inclusion criteria underwent allergen challenge with placebo and rosmarinic acid, in this order, separated by a washout period of at least 4 weeks. Placebo was inhaled PBS on 2 consecutive mornings before challenge. Rosmarinic acid treatment consisted of 7 days of 2 cups of tea per day. Day 6 consisted of pre-dose measurements of airway hyperresponsiveness and sputum cells. On Day 7 allergen inhalation challenge was performed. Measurements of FEV1 were taken at regular intervals until 7 h after challenge and sputum cells were then collected. […]
Sputum was induced and processed using the method described by Pizzichini et al. (1996). Differential cell counts were obtained and an aliquot of cells were lysed for quantitative PCR measurements.

[2] = test system: mild allergic asthmatic subjects; assay: Methacholine inhalation test (methacholine PC20, airway hyper-responsiveness); type: in vivo, human; settings: tea 2 cups per day for 7 days
Method: as §1, with “(45 and 57 year old, male)” for “(person)”
as §2
Methacholine inhalation challenge was performed as described by Cockcroft (1985). The test was terminated when a fall in FEV1 of 20% of the baseline value occurred, and the methacholine PC20 is calculated.

[3] = test system: mild allergic asthmatic subjects; assay: Allergen inhalation challenge (allergen-induced bronchoconstriction, EAR and LAR); type: in vivo, human
Method: as §1, §2
Allergen challenge was performed as described by O'Byrne (1987), and the concentration of allergen extract (Omega Laboratories, Montreal, QC) for inhalation was determined from a formula described by Cockcroft et al. (1987). […]

[4] = test system: seasonal allergic rhinitis; settings: active treatment; cited from earlier work
Aβ25-35-injected mice = settings: Aβ25-35 injection; cited from earlier work
[5] = Stability of rosmarinic acid in dried and stored spearmint 700B tissues; type: physicochemical; settings: heated to 80° C. for an additional 24 hours after drying to 11.7% moisture
Method: The level of rosmarinic acid in dried and stored samples of spearmint line 700B tissues was followed over time to determine its stability. Spearmint plant tissue was harvested, dried, and stored, and levels of rosmarinic acid were determined essentially as described by Fletcher et al., (2005a). Plant material was harvested manually from the field and placed in large net bags. The bagged mint […] spread evenly over a grate and dried in a drying oven at a temperature of 35° C. for 96 hours. The stems and other debris were separated from the leaves, and the leaves were crushed to a size suitable for tea. The crushed leaf material was transferred to zip-lock bags and stored at room temperature in the absence of light. Additionally, to study the effect of drying temperature on stability of RA, a sample of spearmint plant material was dried to 11.7% moisture as above for determination of RA content. After 96 hours, a sample of the material was placed into a drying oven and heated to 80° C. for an additional 24 hours, and RA levels were also determined.

[6] = cited from earlier work
[7] = test system: mice exposed to diesel dust particulates; settings: 2 mg/day for 3 days prior to exposure; cited from earlier work

## O=C(/C=C/c1ccc(O)c(O)c1)O[C@H](Cc1ccc(O)c(O)c1)C(=O)O [RA, α-O-caffeoyl-3,4-dihydroxyphenyl-lactic acid]
[1]
  % sputum eosinophils post allergen: consistently lower
[2]; subject 19, 24 h post allergen challenge (cat)
  Methacholine PC20: 0.38 mg/mL
[2]; subject 20, 24 h post allergen challenge (HDMDP)
  Methacholine PC20: 1.27 mg/mL
[3]; subject #20, vs placebo, allergen 1:128 dilution with RA, 1:64 with diluent
  Allergen-induced EAR: lower
[3]; two subjects, limited sample size
  Effect on the allergen-induced EAR or LAR: does not appear to have any effect
[4]
  Numbers of neutrophils and eosinophils in nasal lavage fluid: significantly decreased
Aβ25-35-injected mice
  Effective lowest dose preventing Aβ25-35-induced nitration of proteins in the hippocampus: 0.25 mg/kg
[5]
  Amount of RA in the tissues before and after the 80° C. drying step: remained the same
[6]; rat urine
  Recovery of intact rosmarinic acid and metabolites in urine: 0.077 % of the amount ingested
[6]; rats, absorbed via the small intestine
  Time to full concentration in the blood plasma: ≤ 30 min
[7]
  Protein and DNA damage in lung tissue (postmortem histological staining) compared to controls: marked decrease
